Read-outs that look alike come from different tables or passages of the source.
Columns and labels:
UGT1A1 = biological target: T1, UGT1A1 (Homo sapiens, UniProt P22309); test: UGT1A1 inhibition in HLM, β-estradiol glucuronidation; type: in vitro ADME
T1 sequence (P22309 26-533): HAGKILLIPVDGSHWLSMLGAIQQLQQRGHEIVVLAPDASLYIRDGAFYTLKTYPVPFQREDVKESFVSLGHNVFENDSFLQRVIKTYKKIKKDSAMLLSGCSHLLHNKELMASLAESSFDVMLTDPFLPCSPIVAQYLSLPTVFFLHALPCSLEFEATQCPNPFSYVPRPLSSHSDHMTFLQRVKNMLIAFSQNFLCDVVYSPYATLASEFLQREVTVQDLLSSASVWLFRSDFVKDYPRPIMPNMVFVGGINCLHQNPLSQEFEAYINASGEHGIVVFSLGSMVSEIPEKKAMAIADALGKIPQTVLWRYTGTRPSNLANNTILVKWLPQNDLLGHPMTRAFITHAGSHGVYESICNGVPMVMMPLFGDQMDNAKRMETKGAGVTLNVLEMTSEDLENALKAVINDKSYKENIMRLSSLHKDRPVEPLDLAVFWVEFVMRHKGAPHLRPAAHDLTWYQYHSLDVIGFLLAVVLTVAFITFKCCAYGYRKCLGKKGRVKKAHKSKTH

UGT1A6 [1] = biological target: T2, UGT1A6 (Homo sapiens, UniProt P19224); test: UGT1A6 inhibition in HLM, serotonin glucuronidation; type: in vitro ADME; conditions: for IC50: HLM
T2 sequence (P19224 27-532): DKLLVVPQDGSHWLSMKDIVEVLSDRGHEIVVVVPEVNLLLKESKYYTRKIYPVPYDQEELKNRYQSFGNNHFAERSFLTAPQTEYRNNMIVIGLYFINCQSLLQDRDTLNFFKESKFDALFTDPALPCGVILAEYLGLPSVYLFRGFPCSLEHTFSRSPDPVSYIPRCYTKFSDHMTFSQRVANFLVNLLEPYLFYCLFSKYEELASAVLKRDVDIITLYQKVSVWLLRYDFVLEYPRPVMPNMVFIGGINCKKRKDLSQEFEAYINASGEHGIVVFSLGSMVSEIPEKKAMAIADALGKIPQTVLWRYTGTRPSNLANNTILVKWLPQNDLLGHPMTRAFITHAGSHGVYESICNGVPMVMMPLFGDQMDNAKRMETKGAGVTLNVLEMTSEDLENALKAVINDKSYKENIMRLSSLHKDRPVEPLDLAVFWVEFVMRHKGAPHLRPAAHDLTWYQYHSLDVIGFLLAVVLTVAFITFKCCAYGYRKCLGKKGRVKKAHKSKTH

[2] = rats, ref Yeo et al., 2013, cited from earlier work
[3] = ref Riche et al., 2013, cited from earlier work
UGT1A9 = biological target: T3, UGT1A9 (Homo sapiens, UniProt O60656); test: UGT1A9 inhibition in HLM, mycophenolic acid glucuronidation; type: in vitro ADME
T3 sequence (O60656 26-530): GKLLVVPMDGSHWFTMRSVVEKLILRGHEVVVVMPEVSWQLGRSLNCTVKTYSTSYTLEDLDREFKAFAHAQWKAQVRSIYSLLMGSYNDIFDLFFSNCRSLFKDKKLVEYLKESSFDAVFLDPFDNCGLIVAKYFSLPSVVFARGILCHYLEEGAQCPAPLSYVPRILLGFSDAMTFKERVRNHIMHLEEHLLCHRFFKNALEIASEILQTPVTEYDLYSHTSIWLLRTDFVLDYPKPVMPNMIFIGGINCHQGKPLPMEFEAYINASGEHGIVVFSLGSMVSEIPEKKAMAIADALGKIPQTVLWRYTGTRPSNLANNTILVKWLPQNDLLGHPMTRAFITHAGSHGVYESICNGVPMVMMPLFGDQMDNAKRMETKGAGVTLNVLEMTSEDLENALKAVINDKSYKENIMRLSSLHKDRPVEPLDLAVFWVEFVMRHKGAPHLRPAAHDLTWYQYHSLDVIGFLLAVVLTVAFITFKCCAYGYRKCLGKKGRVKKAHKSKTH

CYP2C8 [4] = biological target: T4, CYP2C8 (Homo sapiens, UniProt P10632); test: CYP2C8 inhibition in pooled HLM, amodiaquine to desethylamodiaquine; type: in vitro ADME; conditions: for IC50: amodiaquine
T4 sequence (P10632 1-490): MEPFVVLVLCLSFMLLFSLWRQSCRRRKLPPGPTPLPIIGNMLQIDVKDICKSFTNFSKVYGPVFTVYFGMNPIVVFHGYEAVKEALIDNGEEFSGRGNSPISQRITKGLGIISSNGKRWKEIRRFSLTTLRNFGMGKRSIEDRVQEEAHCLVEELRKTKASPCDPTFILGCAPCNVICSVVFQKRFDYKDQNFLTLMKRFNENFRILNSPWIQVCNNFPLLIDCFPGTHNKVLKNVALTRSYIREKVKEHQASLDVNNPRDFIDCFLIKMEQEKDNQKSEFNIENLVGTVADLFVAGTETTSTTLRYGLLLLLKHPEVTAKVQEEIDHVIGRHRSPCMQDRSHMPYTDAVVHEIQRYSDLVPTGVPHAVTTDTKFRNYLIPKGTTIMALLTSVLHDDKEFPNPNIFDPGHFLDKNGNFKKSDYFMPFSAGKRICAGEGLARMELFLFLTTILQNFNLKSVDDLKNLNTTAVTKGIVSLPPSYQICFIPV

CYP2C8 [5] = biological target: T4, CYP2C8; test: CYP2C8 inhibition in pooled HLM, pioglitazone to hydroxypioglitazone; type: in vitro ADME
UGT1A8/10 = UGT1A8/10 inhibition in HIM, mycophenolic acid glucuronidation; type: in vitro ADME, human
UGT1A6 [6] = conditions: UGT1A6 inhibition; ref Sridar et al., 2004; cited from earlier work
[7] = rats; ref Kapetanovic et al., 2011; cited from earlier work
[8] = initial screening, RDI 250 mg / rough IC50

## COc1cc(/C=C/c2ccc(O)cc2)cc(OC)c1 [pterostilbene]
UGT1A1; Rough IC50, initial screening, HLM, β-estradiol
  IC50: > 500 µM
UGT1A1; human, human liver microsomes, pH 7.4, probe β-estradiol (25 μM)
  inhibition at 30 min: < 50%
UGT1A1; [8]
  V/D index: <2 L/dose
UGT1A6 [1]; Precise IC50, confirmatory experiment, serotonin, mean ± SE
  IC50: 15 µM
UGT1A6 [1]; Rough IC50, initial screening, serotonin glucuronide formation, mean ± standard error
  IC50: 26.7 ± 40.7 µM
UGT1A6 [1]; [8]
  V/D index: 36.50 L/dose
[2]; fasting
  Decrease of bioavailability by fasting: ~55%
[2]; intravenous dose of 2.5 mg/kg
  Clearance: rapid
[2]; oral aqueous solution
  Bioavailability: 15%
[3]; 250 mg daily dose
  Effect on blood pressure: reduction in blood pressure
[3]; humans, 250 mg/day
  Safety of long term use: safe
UGT1A9
  IC50: > 100 µM
UGT1A9; human, human liver microsomes, pH 7.4, probe mycophenolic acid (240 μM)
  inhibition at 30 min: < 50%
UGT1A9; [8]
  V/D index: 3.89 L/dose
CYP2C8 [4]; Precise IC50, confirmatory experiment, HLM, mean ± SE
  IC50: 3.12 µM
CYP2C8 [4]; Rough IC50, initial screening, pooled HLM, desethylamodiaquine formation, mean ± standard error
  IC50: 26.9 ± 5.6 µM
CYP2C8 [4]; [8]
  V/D index: 36.30 L/dose
CYP2C8 [5]
  IC50: 17.9 ± 2.2 µM
UGT1A8/10; human, human intestinal microsomes, pH 7.4, probe mycophenolic acid (70 μM)
  IC50 at 30 min: 92.7 ± 18.4 µM
UGT1A8/10; initial screening
  VDI: 10.5 L
UGT1A8/10; [8]
  V/D index: 10.53 L/dose

## COc1cc(C2Oc3cc([C@H]4Oc5cc(O)cc(O)c5C(=O)[C@@H]4O)ccc3OC2CO)ccc1O (some centres unmarked) [Silybin]
UGT1A6 [6]
  IC50: 28 µM

## Oc1ccc(/C=C/c2cc(O)cc(O)c2)cc1 [resveratrol]
[7]
  Bioavailability: 20%

Source: paper PMC6438784 (Saudi Pharmaceutical Journal : SPJ, 2019)
